# Experimental data from patent US20060241177A1, “Novel compounds, pharmaceutical compositions containing same, and methods of use for same” (priority 2002, published 2006).
# Where two headings read alike, the source gives them in different places.
# Experiments:
# Format in all cases: cell-based
# [1] = test system: MCF-7 human breast cancer cells; test: Crystal violet cell growth assay; conditions: MCF7, MCF-7 cells, 72 hours, read-out: Cr. Violet (IC50)
# Method: Crystal Violet Cell Growth Assay
# The crystal violet assay measures cell growth but not cytotoxicity. This assay employs crystal violet staining of fixed cells in 96-well plates with subsequent solubilization and measurement of OD490 on a spectrophotometer. The OD490 corresponds to cell growth per unit time measured. Cells are treated with the compounds of interest or vehicle controls and IC50 for each compound is computed.
# To measure the cytotoxicity of specific compounds against cancer cells, 5×10^4 MCF-7 human breast cancer cells, obtained from the American Type Culture Collection are plated per well in 24 well plates in DMEM medium with 10% fetal bovine serum, penicillin, and streptomycin. Following overnight culture at 37° C. and 5% CO2, the compounds to be tested, dissolved in DMSO, are added to the wells in 1 μl volume at the following concentrations: 50, 40, 30, 20, and 10 μg/ml in triplicate. Additional concentrations are tested if required. 1 μl of DMSO is added to triplicate wells as the vehicle control. C75 is run at 10, and 5 μg/ml in triplicate as positive controls.
# After 72 hours of incubation, cells are stained with 0.5 ml of Crystal Violet stain (0.5% in 25% methanol) in each well. After 10 minutes, wells are rinsed, air dried, and then solubilized with 0.5 ml 10% sodium dodecylsulfate with shaking for 2 hours. Following transfer of 100 μl from each well to a 96-well plate, plates are read at OD490 on a Molecular Devices SpectraMax Plus Spectrophotometer Average OD490 values are computed using SOFTmax Pro Software (Molecular Devices) and IC50 values are determined by linear regression analysis using Prism version 3.02 (Graph Pad Software, San Diego).
# [2] = test system: MCF-7 human breast cancer cells; test: [14C]acetate incorporation into total lipids (fatty acid synthesis in whole cells); conditions: for 14C (IC50): MCF-7 cells; for IC50: Homo sapiens, MCF7, MCF-7 cells
# Method: Measurement of [^14C]Acetate Incorporation into Total Lipids and Determination of IC50 of Compounds
# This assay measures the incorporation of [^14C] acetate into total lipids and is a measure of fatty acid synthesis pathway activity in vitro. It is utilized to measure inhibition of fatty acid synthesis in vitro.
# MCF-7 human breast cancer cells cultured as above, are plated at 5×10^4 cells per well in 24-well plates. Following overnight incubation, the compounds to be tested, solubilized in DMSO, are added at 5, 10, and 20 μg/ml in triplicate, with lower concentrations tested if necessary. DMSO is added to triplicate wells for a vehicle control. C75 is run at 5 and 10 μg/ml in triplicate as positive controls. After 4 hours of incubation, 0.25 μCi of [^14C]acetate (10 μl volume) is added to each well.
# After 2 hours of additional incubation, medium is aspirated from the wells and 800 μl of chloroform:methanol (2:1) and 700 μl of 4 mM MgCl2 is added to each well. Contents of each well are transferred to 1.5 ml Eppendorf tubes, and spun at full-speed for 2 minutes in a high-speed Eppendorf Microcentrifuge 5415D. After removal of the aqueous (upper) layer, an additional 700 μl of chloroform:methanol (2:1) and 500 μl of 4 mM MgCl2 are added to each tube and then centrifuged for 1 minutes as above. The aqueous layer is removed with a Pasteur pipette and discarded. An additional 400 μl of chloroform:methanol (2:1) and 200 μl of 4 mM MgCl2 are added to each tube, then centrifuged and aqueous layer is discarded. The lower (organic) phase is transferred into a scintillation vial and dried at 40° C. under N2 gas. Once dried, 3 ml of scintillant (APB #NBC5104) is added and vials are counted for ^14C. The Beckman Scintillation counter calculates the average cpm values for triplicates.
# The IC50 for the compounds is defined as the concentration of drug leading to a 50% reduction in [^14C] acetate incorporation into lipids compared to controls. This is determined by plotting the average cpm for each inhibitor concentration tested, performing linear regression and computing the best-fit line, r^2 values, and 95% confidence intervals. The average cpm values are computed by the Beckman scintillation counter (model LS6500) for each compound concentration. Computation of linear regression, best-fit line, r^2, and 95% confidence intervals are calculated using Prism Version 3.0 (Graph Pad Software).
# [3] = test system: Escherichia coli (ATCC #25922); test: Broth microdilution MIC; conditions: 24 hours; for MIC: Escherichia coli, ATCC25922
# Method: (§1) A broth microdilution assay is used to assess the antimicrobial activity of the compounds. Compounds are tested at twofold serial dilutions, and the concentration that inhibits visible growth (OD600 at 10% of control) is defined as the MIC. Microorganisms tested include Staphylococcus aureus (ATCC #29213), Enterococcus faecalis (ATCC #29212), Pseudomonas aeruginosa (ATCC #27853), and Escherichia coli (ATCC #25922). The assay is performed in two growth media, Mueller Hinton Broth and Trypticase Soy Broth.
# (§2) A blood (Tsoy/5% sheep blood) agar plate is inoculated from frozen stocks maintained in T soy broth containing 10% glycerol and incubated overnight at 37° C. Colonies are suspended in sterile broth so that the turbidity matches the turbidity of a 0.5 McFarland standard. The inoculum is diluted 1:10 in sterile broth (Mueller Hinton or Trypticase soy) and 195 ul is dispensed per well of a 96-well plate. The compounds to be tested, dissolved in DMSO, are added to the wells in 5 ul volume at the following concentrations: 25, 12.5, 6.25, 3.125, 1.56 and 0.78 ug/ml in duplicate. Additional concentrations are tested if required. 5 ul of DMSO added to duplicate wells are the vehicle control. Serial dilutions of positive control compounds, vancomycin (E. faecalis and S. aureus) and tobramycin (E. coli and P. aeruginosa), are included in each rum
# (§3) After 24 hours of incubation at 37° C., plates are read at OD600 on a Molecular Devices SpectraMax Plus Spectrophotometer. Average OD600 values are computed using SOFTmax Pro Software (Molecular Devices) and MIC values are determined by linear regression analysis using Prism version 3.02 (Graph Pad Software, San Diego). The MIC is defined as the concentration of compound required to produce an OD600 reading equivalent to 10% of the vehicle control reading.
# [4] = test system: Enterococcus faecalis (ATCC #29212); test: Broth microdilution MIC; conditions: 24 hours; for MIC: Enterococcus faecalis, ATCC29212
# Method: as §1, §2, §3
# [5] = test system: Staphylococcus aureus (ATCC #29213); test: Broth microdilution MIC; conditions: 24 hours; for MIC: Staphylococcus aureus, ATCC29213
# Method: as §1, §2, §3
# [6] = test system: Pseudomonas aeruginosa (ATCC #27853); test: Broth microdilution MIC; conditions: 24 hours; for MIC: Pseudomonas aeruginosa, ATCC27853
# Method: as §1, §2, §3
# [7] = Trypticase Soy Broth, read-out: Ecoli/Tsoy (MIC)
# [8] = Mueller Hinton Broth, read-out: EF/MH (MIC)
# [9] = Trypticase Soy Broth, read-out: EF/Tsoy (MIC)
# [10] = Mueller Hinton Broth, read-out: SA/MH (MIC)
# [11] = Trypticase Soy Broth, read-out: SA/Tsoy (MIC)
# [12] = Mueller Hinton Broth, read-out: PSAE/MH (MIC)
# [13] = Trypticase Soy Broth, read-out: PSAE/Tsoy (MIC)
Compound,IC50 [1] [mg/L],14C (IC50) [2],"MIC [3, 7] [mg/L]",Ecoli/MH (MIC) ([3]; Mueller Hinton Broth),"MIC [4, 8] [mg/L]","MIC [4, 9] [mg/L]","MIC [5, 10] [mg/L]","MIC [5, 11] [mg/L]","MIC [6, 12] [mg/L]","MIC [6, 13] [mg/L]",IC50 [2] [mg/L],PSAE/MH (MIC) ([6]; Mueller Hinton Broth),PSAE/Tsoy (MIC) ([6]; Trypticase Soy Broth),"MIC ([3]; Mueller Hinton Broth, read-out: Ecoli/MH (MIC)) [mg/L]",Ecoli/Tsoy (MIC) ([3]; Trypticase Soy Broth),SA/Tsoy (MIC) ([5]; Trypticase Soy Broth),EF/MH (MIC) ([4]; Mueller Hinton Broth),EF/Tsoy (MIC) ([4]; Trypticase Soy Broth)
C=CCNC(=O)C1=C(C)C(=O)O[C@H]1CCCCCCCC,23.7,Neg (stim),199,Neg,115,203,79,87,280,137,–,–,–,–,–,–,–,–
C=C1C(=O)O[C@@H](CCCCCCCC)[C@@H]1C(=O)NCC(=O)OC (racemic),1.3 ± 0.09,–,275,Neg,80,245,4.3,26,–,–,1.1 ± 0.03,Neg,Neg,–,–,–,–,–
C=CCNC(=O)[C@H]1[C@H](CCCCCCCC)OC(=O)[C@H]1C (racemic),43.9 ± 4.8,–,–,–,91,114,107,–,–,–,25.7,Neg,Neg,108,Neg,Neg,–,–
C=C1C(=O)O[C@@H](CCCCCCCC)[C@@H]1C(=O)NCCO (racemic),2.2 ± 1,–,–,Neg,–,77,44,48,–,–,2.3 ± 1.3,Neg,Neg,–,Neg,–,Neg,–
CCCCCCCCC1OC(=O)[C@@H](C)[C@H]1C(=O)O (stereo partly drawn),> 50,–,–,–,–,–,–,–,–,–,31,–,–,–,–,–,–,–
C=CCNC(=O)[C@H]1[C@H](CCCCCCCC)OC(=O)[C@@H]1C (racemic),30,Neg,155,Neg,84,–,80,193,218,160,–,–,–,–,–,–,–,Neg
C=C1C(=O)O[C@@H](CCCCCCCC)[C@@H]1C(=O)NCC(=O)O (racemic),> 50,–,235,Neg,219,215,72,52,–,–,–,Neg,Neg,–,–,–,–,–
C=CCNC(=O)[C@@H]1C(=C)C(=O)O[C@H]1CCCCCC (racemic),0.85 ± 0.08,–,–,Neg,103,38,49,47,–,–,3.3,Neg,Neg,–,Neg,–,–,–
C=CCNC(=O)[C@@H]1C(=C)C(=O)O[C@H]1CCCC (racemic),2.2 ± 0.3,–,–,Neg,190,67,65,96,–,–,1.8 ± 0.3,Neg,Neg,–,Neg,–,–,–
C=CCNC(=O)[C@@H]1C(=C)C(=O)O[C@H]1CCCCCCCC (racemic),0.9 ± 0.5,–,–,–,36,25,9.1 ± 1.9,12 ± 0.5,–,–,0.75 ± 0.4,Neg,Neg,–,–,–,–,–
CCCCCCCCC1OC(=O)[C@H](C)[C@H]1C(=O)O (stereo partly drawn),49,Neg,–,Neg,109,94,43,60,–,–,–,Neg,Neg,–,Neg,–,–,–
